Where a name gives a salt, the structure may show the parent alone.
Key:
[1] = system: NCI-H292 lung cancer cells; assay: FDA drug screening, complete media vs cholesterol-free media without statin (TABLE 1); type: cell-based, human
[2] = system: NCI-H292 lung cancer cells; assay: FDA drug screening, complete media vs cholesterol-free media with simvastatin (TABLE 2); type: cell-based, human; conditions: for Cholesterol-free media + simvastatin (0.04 μM) / Complete Media: NCI-H292 cells
[3] = Complete minus Cholesterol-free, >0 enhanced anti-cancer activity, about 0 neutral, <0 antagonist
[4] = NCI-H292 cells, cholesterol-free media without statin
[5] = cholesterol-free media with simvastatin 0.04 μM, cell growth value in FDA drug screen
[6] = complete media, cell growth value in FDA drug screen
[7] = complete media minus cholesterol-free media + simvastatin, >0 enhanced anti-cancer activity, about 0 neutral, <0 antagonist
[8] = Complete minus Cholesterol-free, […]
[9] = NCI-H292 cells in cholesterol-free media without statin
[10] = NCI-H292 cells in complete media
[11] = FDA drug library screen, cholesterol-free media with simvastatin 0.04 μM
[12] = FDA drug library screen, complete media
[13] = complete media vs cholesterol-free media + simvastatin (0.04 μM), >0 enhanced anti-cancer activity, about 0 neutral, <0 antagonist
[14] = Complete minus Cholesterol-free, greater than 0 enhanced anti-cancer activity, about 0 neutral, below 0 antagonist
[15] = NCI-H292 cells, FDA drug library screen, cholesterol-free media without statin
[16] = NCI-H292 cells, FDA drug library screen, complete media
[17] = NCI-H292 cells, cholesterol-free media without statin, FDA drug library screen
[18] = NCI-H292 cells, complete media, FDA drug library screen
[19] = complete vs cholesterol-free media, greater than 0 enhanced anti-cancer activity, about 0 neutral, below 0 antagonists
[20] = drug in cholesterol-free media with simvastatin 0.04 μM
[21] = complete vs cholesterol-free media, >0 enhanced anti-cancer activity, about 0 neutral, <0 antagonist
[22] = FDA library drug in cholesterol-free media with simvastatin 0.04 μM
[23] = FDA library drug in complete media

| Compound | Difference [1, 3] | Cholesterol-free [1, 4] | Complete ([1]; NCI-H292 cells, complete media) | Cholesterol-free media + simvastatin (0.04 μM) [2, 11] | Complete Media [2, 12] | Difference [2, 13] | Cholesterol-free [1, 17] | Complete [1, 18] | other results |
| --- | --- | --- | --- | --- | --- | --- | --- | --- | --- |
| CC(=O)NO [Acetohydroxamic acid] | −0.28 | 1.174 | 0.8978 |  |  |  |  |  | Cholesterol-free media + simvastatin (0.04 μM) [2, 5]: 0.8799; Complete Media [2, 6]: 0.8992; Difference [2, 7]: 0.02 |
| CCOC(=O)c1cncn1[C@H](C)c1ccccc1 [Etomidate (hydrochloride)] |  |  |  | 0.8714 | 1.097 |  |  |  | Difference [1, 8]: −0.60; Cholesterol-free [1, 9]: 1.469; Complete [1, 10]: 0.8733; Difference ([2]; complete media minus cholesterol-free media + simvastatin, […]): 0.23 |
| C[C@H](CCC(=O)NCCS(=O)(=O)O)[C@H]1CC[C@H]2[C@@H]3CC[C@@H]4C[C@H](O)CC[C@]4(C)[C@H]3C[C@H](O)[C@]12C [Taurodeoxycholic acid (sodium hydrate)] | −0.23 | 1.216 | 0.9829 |  |  | −0.45 |  |  |  |
| C=CCc1ccccc1OCC(O)CNC(C)C (stereo not drawn) [Alprenolol (hydrochloride)] |  |  |  | 1.228 |  | −0.08 |  |  | Difference [1, 14]: −0.15; Cholesterol-free [1, 15]: 1.198; Complete [1, 16]: 1.044 |
| CNC(=O)c1c(C)oc2cc(Oc3ncnc4cc(OC)c(OC)cc34)ccc12 [Fruquintinib] | 0.02 |  |  | 1.198 | 1.059 | −0.14 | 0.9702 | 0.994 |  |
| Cn1c(=O)c2[nH]cnc2n(C)c1=O [Theophylline] |  | 1.592 | 1.176 | 1.182 | 1.026 | −0.16 |  |  | Difference [1, 19]: −0.42 |
| Cn1nnc(-c2ccc(-c3ccc(N4C[C@H](CO)OC4=O)cc3F)cn2)n1 [Tedizolid] |  |  |  |  |  |  |  |  | Difference [1, 14]: −0.10; Cholesterol-free [1, 15]: 0.9116; Complete [1, 16]: 0.8073; Cholesterol-free media + simvastatin (0.04 μM) [2, 5]: 1.119; Complete Media [2, 6]: 1.184; Difference [2, 7]: 0.07 |
| O=C(NCc1c(F)cc(F)cc1F)c1cn2c(c(O)c1=O)C(=O)N1[C@H]3CC[C@H](C3)O[C@@H]1C2 [Bictegravir] |  | 1.057 | 0.7123 |  |  | −0.20 |  |  | Difference [1, 19]: −0.34; Cholesterol-free media + simvastatin (0.04 μM) [2, 20]: 1.109; Complete Media ([2]; drug in complete media): 0.9083 |
| CC/C=C\C/C=C\C/C=C\C/C=C\C/C=C\C/C=C\CCC(=O)O [Docosahexaenoic Acid] |  |  |  |  |  | −0.23 | 1.175 | 1.764 | Difference [1, 21]: 0.59; Cholesterol-free media + simvastatin (0.04 μM) [2, 20]: 1.034; Complete Media ([2]; drug in complete media): 0.8041 |
| C[N+]1(C)[C@@H]2CC[C@H]1C[C@@H](OC(=O)C(CO)c1ccccc1)C2 (stereo partly drawn) [Atropine methyl bromide] |  |  |  |  |  | −0.19 | 1.114 | 1.708 | Difference [1, 21]: 0.59; Cholesterol-free media + simvastatin (0.04 μM) [2, 20]: 1.143; Complete Media ([2]; drug in complete media): 0.9562 |
| CO/N=C(\C(=O)N[C@@H]1C(=O)N2C(C(=O)[O-])=C(COC(N)=O)CS[C@H]12)c1ccco1.[Na+] [Cefuroxime (sodium)] | −0.19 | 1.146 | 0.9534 | 1.129 | 1.035 | −0.09 |  |  |  |
| Cc1[nH]c(=O)c(C#N)cc1-c1ccncc1 [Milrinone] | −0.04 |  |  | 1.16 | 1.825 |  | 0.9793 | 0.9407 | Difference [2, 7]: 0.66 |
| Hyaluronidase |  |  |  |  |  |  | 0.9036 | 0.8508 | Difference [1, 8]: −0.05; Cholesterol-free media + simvastatin (0.04 μM) [2, 22]: 1.288; Complete Media [2, 23]: 1.022; Difference ([2]; complete media vs cholesterol-free media + simvastatin (0.04 μM), […]): −0.27 |
| Clc1cccc(Cl)c1N=C1NCCN1 [Clonidine] |  |  |  |  |  | −0.34 |  |  | Difference ([1]; Complete minus Cholesterol-free, greater than 0 enhanced anti-cancer activity, about 0 neutral, below 0 antagonists): −0.63; Cholesterol-free [1, 9]: 1.46; Complete [1, 10]: 0.8249; Cholesterol-free media + simvastatin (0.04 μM) [2, 22]: 1.26; Complete Media [2, 23]: 0.9157 |

Source: patent publication US20250144067A1, “PERSONALIZED STARVATION THERAPY FOR CANCER” (Faeth Therapeutics, Inc., priority 2021, published 2025)
